Measured values: patent US20090004137A1, “Uridine Derivatives as Antiviral Drugs Against a Flaviviridae, Especially Hcv” (priority 2004, published 2009)
Where two headings read alike, the source gives them in different places.

Key:
[1] = Cytotoxicity on uninfected MDBK cells (neutral red); assay type: cell-based; settings: cattle (bovine)
Protocol: (§1) For cell viability assays, cells were seeded in 96-well plates at a density of 12,500 cells per well. They were treated by the different molecules with the same concentrations and conditions than those used for the antiviral assays. Then, cell viability was measured by neutral red assay. Neutral red specifically colors lysosomes and its accumulation depends on cellular membrane integrity. The yield of neutral red incorporated in cells is proportional to the number of living cells. At the end of treatment, culture medium was removed; cells were washed by PBS, then coloured with neutral red at 0.005% for 3 hours at 37° C. Cells were then fixed 1 minute by formol calcium and lysed by atreatment with a vol/vol mixture of acetic acid and ethanol. After 15 minutes incubation, absorbance was read at 490 nm.
(§2) Antiviral and cytotoxicity assays for BVDV. Noncytopathic-BVDV-free MDBK cells (European Collection of Animal Cell Cultures, Porton Down, U.K.) were kindly provided by Dr N. Zitzmann (Oxford University). Cells were propagated in DMEM F12 (Eurobio) supplemented with 10% horse serum (Life Technologies), 1% L-glutamin (Gibco), 1% penicillin ansd streptomycin (Gibco). The NADL cytopathic (CP) BVDV strain was obtained from ATCC: VR-504.
Uninfected MDBK cells were grown in the absence or presence of varying concentrations of drug tested. After 3 days, toxicity was evaluated by neutral red coloration as described above.

[2] = Cytotoxicity against VERO cells; assay type: cell-based; settings: African green monkey
[3] = test system: subgenomic HCV replicon BM4-5 in Huh7 cells; test: Antiviral assay on HCV subgenomic replicon, Northern blot of (+)-strand HCV RNA; assay type: cell-based, Hepatitis C Virus; settings: for IC50: read-out: IC50, anti-HCV activity, (+)-RNA; for IC90: read-out: IC90, anti-HCV activity, (+)-RNA; for Selectivity Index (SI), ratio between CC50 and IC50: replicon system
Protocol: (§3) Antiviral and Cytotoxicity assays for HCV. Huh7 cells harbouring the subgenomic HCV replicon BM4-5 (J. T. Guo et al., J. Virol. 2001, 75: 8516-8523) were used in this study. Cells were maintained in Dulbecco's modified Eagle's medium high glucose 4.5 g/l (LifeTechnlogies) supplemented with 10% fetal bovine serum, 1% L-glutamine, 1% penicillin and streptomycin, 1% L-Pyruvate and 500 μg/ml of geneticien (G418, Invitrogen). Geneticin was used to select cells permitting the HCV RNA replication. Cells were passaged every four days with a 1:4 ratio.
Cells were seeded in 6-wells plates at a density of 2.5×10^5 cells per well, sixteen hours before the beginning of treatment. […] The administration of each drug was renewed every day for three consecutive days. Ribarivin (ICN Pharmaceuticals), mycophenolic acid (MPA, Sigma), and interferon alpha-2b (IntronA®)) were used in the same conditions as positive controls. The concentrations used for these drugs were respectively: 0; 0.5; 1; 2; 4; 8; 16; 32; 64; 128; 256 and 512 μM for ribavirin, 0; 2.5; 5; 10; 20; 40 μM for mycophenolic acid, and 0; 0.1; 1; 10; 100 and 1000 Ul/mL for IFN alpha-2b. Total RNA was extracted at the end of treatment (24 hours after the last day of treatment) with the <<Extract all>> reagent (Eurobio), which is a mix of phenol and guanidium thiocyanate. Northern blot analysis was then performed using the NorthernMax™-Gly kit (Ambion), following manufacturer's instructions. Five micrograms of total RNA were denaturated in glyoxal buffer at 50° C. for 30 minutes, separated by 1.1% agarose gel electrophoresis, and then transferred for 12 hours onto a charged nylon membrane (HybondN+, Amersham). Hybridization was carried out with three different [^32P]CTP-labelled riboprobes obtained by in vitro transcription (Riboprobe in vitro transcription system, Promega). Two probes were complementary to the NS5A region of the HCV genome of negative polarity and positive polarity. A third probe was complementary to the beta-actin mRNA and obtained by in vitro transcription from a specific plasmid (PTRI beta actin human, reference 7424, Ambion). First, the blot was hybridized with the riboprobes directed against the negative strand of HCV RNA and beta-actin mRNA, respectively. After one night of hybridization at 68° C., the membrane was washed, then exposed to X-ray film and a phosphor screen (phosphorimager). This screen was then scanned and quantitative analysis was achieved using ImageQuant software. The amount of beta-actin mRNA was used as an internal loading control to standardize the amount of HCV RNA detected. The same membrane was subsequently hybridized with the […] to determine the level of positive strand HCV RNA, suing the same approach.

[4] = Cell viability (neutral red) on the replicon system; assay type: cell-based; settings: human, Huh7 cells harbouring the subgenomic HCV replicon BM4-5, neutral red test, drug renewed daily for three days, read-out: CC50, cytotoxicity on Replicon System
Protocol: as §3, §1

[5] = Cytotoxicity against CEM cells; assay type: cell-based; settings: human
[6] = Cytotoxicity against PBM cells; assay type: cell-based; settings: human
[7] = test system: BVDV strain NADL; test: Antiviral assay on BVDV, inhibition of cytopathic effect in MDBK cells; assay type: cell-based; settings: Bovine viral diarrhea virus isolates and strains, read-out: EC50 ECP inhibition (3rd day p.i.)
Protocol: as §2, with “(Gibco).” for “(Gibco). The NADL cytopathic (CP) BVDV strain was obtained from ATCC: VR-504.”
MDBK cells were seeded in microwell plates (96 wells) at a density of 1.10^5 cells per well, then infected with BVDV (strain NADL) (at dilution inducing 100%/o cytopathic effect three days post inoculation, i.e approximately 10 plaque forming units (pfu) per well at three days post infection) for one hour, at 37° C. After a wash with DMEM, infected cells were incubated for three days in the presence of absence of drug; each concentration of drug was added in 12 consecutive wells. The appearance of CPE was visually checked the third day post inoculation to evaluate the IC50 on BVDV (strain NADL), according to the different conditions of treatment.

[8] = test system: VERO cells; test: Cytotoxicity against VERO cells; assay type: cell-based
[9] = test system: Huh7 cells harbouring the subgenomic HCV replicon BM4-5; test: Cell viability (neutral red) on the replicon system; assay type: cell-based; settings: neutral red test, drug renewed daily for three days, read-out: CC50, cytotoxicity on Replicon System
Protocol: as §3, §1

[10] = test system: CEM cells; test: Cytotoxicity against CEM cells; assay type: cell-based
[11] = test system: PBM cells; test: Cytotoxicity against PBM cells; assay type: cell-based
[12] = Hepatitis C virus, 72 h, Huh7 BM4-5 replicon, positive strand HCV RNA by Northern blot, three days treatment
[13] = Huh7 BM4-5 replicon, positive strand HCV RNA by Northern blot, three days treatment

## O=c1[nH]c(=O)n([C@@H]2O[C@H](CO)[C@@H](O)[C@H]2O)cc1C#CBr [Compound 13b, 5-(2-bromoethynyl)-uridine]
[1]
  CC50 at 3 days: > 100 µM
[2]
  CC50: > 100 µM
[3]; [12]
  IC50: 58 µM
  IC90: > 200 µM
[3]
  Selectivity Index (SI), ratio between CC50 and IC50: 3.2
[4]
  CC50 at 3 days: 188 µM
[5]
  CC50: > 100 µM
[6]
  CC50: > 100 µM
[7]
  EC50: > 100 µM

## O=c1[nH]c(=O)n([C@@H]2O[C@H](CO)C[C@H]2O)cc1/C(Br)=C\I [Compound 15c, (E)-5-(1-Bromo-2-iodovinyl)-3′-deoxyuridine]
[1]
  CC50 at 3 days: > 100 µM
[2]
  CC50: > 100 µM
[3]; [12]
  IC50: > 200 µM
  IC90: > 200 µM
[3]
  Selectivity Index (SI), ratio between CC50 and IC50: ≦1
[4]
  CC50 at 3 days: > 200 µM
[5]
  CC50: 79.3 µM
[6]
  CC50: 71.5 µM
[7]
  EC50: > 100 µM

## O=c1[nH]c(=O)n([C@@H]2O[C@H](CO)[C@@H](O)[C@H]2O)cc1/C(Cl)=C\I [Compound 16b, (E)-5-(l-Chloro-2-iodovinyl)-uridine]
[8]
  CC50: > 100 µM
[3]; [13]
  IC50: 74.9 µM
  IC90: > 250 µM
[9]
  CC50: > 200 µM
[10]
  CC50: > 100 µM
[11]
  CC50: > 100 µM

## NC(=O)c1ncn([C@@H]2O[C@H](CO)[C@@H](O)[C@H]2O)n1 [Ribavirin, 1-β-D-ribofuranosyl-1,2,4-triazole-3-carboxamide, reference compound]
[1]
  CC50 at 3 days: > 100 µM
[3]; Hepatitis C virus, 72 h
  IC50: 170 µM
[3]; [12]
  IC90: > 512 µM
[3]
  Selectivity Index (SI), ratio between CC50 and IC50: <1
[4]
  CC50 at 3 days: 110 µM
[7]
  EC50: 36 µM
